Activity calls are given as the source filed them. The rule behind the calls is not given here.
Assays:
BEAS-2B = test: Antiproliferative activity against human BEAS-2B cells assessed as inhibition of cell proliferation measured after 72 hrs by MTT assay; type: functional, cell-based
A549 = test: Antiproliferative activity against human A549 cells assessed as inhibition of cell proliferation measured after 72 hrs by MTT assay; type: functional, cell-based; settings: A549, 72 h
L02 [1] = test: Cytotoxicity against human L02 cells assessed as cell viability measured after 72 hrs by MTT assay; type: cell-based; settings: L02, 72 h
HepG2 [2] = test: Antiproliferative activity against human HepG2 cells assessed as inhibition of cell proliferation measured after 72 hrs by MTT assay; type: functional, cell-based; settings: HepG2, 72 h
[3] = Antiproliferative activity against human HePAD38 cells assessed as inhibition of cell proliferation measured after 72 hrs by MTT assay; type: functional, cell-based; settings: HePAD38, 72 h
[4] = Selectivity index, ratio of IC50 for human L02 cells to IC50 for human HePAD38 cells
[5] = Selectivity index, ratio of IC50 for human CCD 19Lu cells to IC50 for human HePAD38 cells
[6] = Selectivity index, ratio of IC50 for human L02 cells to IC50 for human HepG2 cells; type: toxicity; settings: L02 cells versus HepG2 cells, read-out: Ratio IC50
[7] = Selectivity index, ratio of IC50 for human CCD 19Lu cells to IC50 for human HepG2 cells; type: toxicity; settings: CCD 19Lu cells versus HepG2 cells, read-out: Ratio IC50
HeLa [8] = test: Inhibition of human SERCA in human HeLa cells assessed as alteration of calcium dynamics at 1 uM measured by FLIPR calcium assay; type: cell-based
HeLa [9] = test: Inhibition of human SERCA in human HeLa cells assessed as depletion of SERCA-dependent calcium storage at 1 uM preincubated with TG by FLIPR calcium assay; type: cell-based
HeLa [10] = test: Inhibition of human SERCA in human HeLa cells assessed as alteration of calcium dynamics at 1 uM preincubated with compound C measured after 2 hrs by FLIPR calcium assay; type: cell-based
[11] = Induction of apoptosis in human L02 cells assessed as viable cells at 1 uM measured after 24 hrs by Annexin-V/PI staining based flow cytometry assay (reference value: 97.5%); type: cell-based; settings: read-out: Activity
L02 [12] = test: Induction of apoptosis in human L02 cells assessed as early apoptotic cells at 1 uM measured after 24 hrs by Annexin-V/PI staining based flow cytometry assay (reference value: 1.49%); type: cell-based; settings: l02, 24 h
L02 [13] = test: Induction of apoptosis in human L02 cells assessed as late apoptotic cells at 1 uM measured after 24 hrs by Annexin-V/PI staining based flow cytometry assay (reference value: 0.133%); type: cell-based; settings: l02, 24 h
L02 [14] = test: Induction of apoptosis in human L02 cells assessed as necrotic cells at 1 uM measured after 24 hrs by Annexin-V/PI staining based flow cytometry assay (reference value: 0.848%); type: cell-based; settings: l02, 24 h
HepG2 [15] = test: Induction of apoptosis in human HepG2 cells assessed as viable cells at 1 uM measured after 24 hrs by Annexin-V/PI staining based flow cytometry assay (reference value: 99.1%); type: functional; settings: read-out: Activity
HepG2 [16] = test: Induction of apoptosis in human HepG2 cells assessed as early apoptotic cells at 1 uM measured after 24 hrs by Annexin-V/PI staining based flow cytometry assay (reference value: 0.181%); type: functional
HepG2 [17] = test: Induction of apoptosis in human HepG2 cells assessed as late apoptotic cells at 1 uM measured after 24 hrs by Annexin-V/PI staining based flow cytometry assay (reference value: 0.016%); type: functional
HepG2 [18] = test: Induction of apoptosis in human HepG2 cells assessed as necrotic cells at 1 uM measured after 24 hrs by Annexin-V/PI staining based flow cytometry assay (reference value: 0.725%); type: functional
[19] = Induction of apoptosis in human HePAD38 cells assessed as viable cells at 1 uM measured after 24 hrs by Annexin-V/PI staining based flow cytometry assay (reference value: 98.9%); type: functional; settings: read-out: Activity
[20] = Induction of apoptosis in human HePAD38 cells assessed as early apoptotic cells at 1 uM measured after 24 hrs by Annexin-V/PI staining based flow cytometry assay (reference value: 0.158%); type: functional
[21] = Induction of apoptosis in human HePAD38cells assessed as late apoptotic cells at 1 uM measured after 24 hrs by Annexin-V/PI staining based flow cytometry assay (reference value: 0.032%); type: functional, HePAD38
[22] = Induction of apoptosis in human HePAD38 cells assessed as necrotic cells at 1 uM measured after 24 hrs by Annexin-V/PI staining based flow cytometry assay (reference value: 0.903%); type: functional

SMILES | IC50 (BEAS-2B) [µM] | IC50 (A549) [µM] | IC50 (L02 [1]) [µM] | IC50 (HepG2 [2]) [µM] | IC50 [3] [µM] | Ratio IC50 [4] | Ratio IC50 [5] | selectivity ratio [6] | selectivity ratio [7] | further results
CC1=C(O)C(=O)C=C2C1=CC=C1[C@@]2(C)CC[C@@]2(C)[C@@H]3C[C@](C)(C(=O)NC(CC(=O)NC(CCC(=O)OC(C)(C)C)C(=O)OC(C)(C)C)C(=O)OC(C)(C)C)CC[C@]3(C)CC[C@]12C (stereo not given in full) | 3.22 | 19.3 | 30.2 | 8.78 | 4.15 | 7.27 | 2.28 | 3.43 | 1.07 | 
CC1=C(O)C(=O)C=C2C1=CC=C1[C@@]2(C)CC[C@@]2(C)[C@@H]3C[C@](C)(C(=O)NC(CCC(=O)NC(CCC(=O)OC(C)(C)C)C(=O)OC(C)(C)C)C(=O)OC(C)(C)C)CC[C@]3(C)CC[C@]12C (stereo not given in full) | 38.6 | 6.19 | 9.55 | 4.27 | 4.74 | 2.01 | 12 | 2.23 | 13.4 | inhibition (HeLa [8]): Active; inhibition (HeLa [9]): Active; inhibition (HeLa [10]): Active; viability at 24 h, 1 µM [11]: 86.7%; Activity (L02 [12]): 6.2%; Activity (L02 [13]): 5.44%; Activity (L02 [14]): 1.64%; viability at 1 µM (HepG2 [15]): 80.2%; Activity (HepG2 [16]): 1.55%; Activity (HepG2 [17]): 11%; Activity (HepG2 [18]): 7.33%; viability at 1 µM [19]: 80.3%; Activity [20]: 1.85%; Activity [21]: 4.17%; Activity [22]: 13.7%
CC1=C(O)C(=O)C=C2C1=CC=C1[C@@]2(C)CC[C@@]2(C)[C@@H]3C[C@](C)(C(=O)NC(CC(=O)OC(C)(C)C)C(=O)OC(C)(C)C)CC[C@]3(C)CC[C@]12C (stereo not given in full) | 3.72 | 4.92 | 15.4 | 3.56 | 11.8 |  |  |  |  | 
CC1=C(O)C(=O)C=C2C1=CC=C1[C@@]2(C)CC[C@@]2(C)[C@@H]3C[C@](C)(C(=O)NCCCNC(=O)OC(C)(C)C)CC[C@]3(C)CC[C@]12C | 0.57 | 4.88 | 3.27 | 1.95 |  |  |  |  |  | 
COC(=O)CCNC(=O)[C@]1(C)CC[C@]2(C)CC[C@]3(C)C4=CC=C5C(=CC(=O)C(O)=C5C)[C@]4(C)CC[C@@]3(C)[C@@H]2C1 | 0.32 | 1.91 | 0.55 | 1.04 |  |  |  |  |  | 
CC1=C(O)C(=O)C=C2C1=CC=C1[C@@]2(C)CC[C@@]2(C)[C@@H]3C[C@](C)(C(=O)NC(CC(=O)OC(C)(C)C)C(=O)NC(CC(=O)OC(C)(C)C)C(=O)OC(C)(C)C)CC[C@]3(C)CC[C@]12C (stereo not given in full) | 0.786 | 2.75 | 5.61 | 1.22 | 0.44 | 12.75 | 5 | 4.6 | 1.81 | inhibition (HeLa [8]): Active; inhibition (HeLa [9]): Active; inhibition (HeLa [10]): Active; viability at 24 h, 1 µM [11]: 82.6%; Activity (L02 [12]): 3.62%; Activity (L02 [13]): 11.7%; Activity (L02 [14]): 2.14%; viability at 1 µM (HepG2 [15]): 69.7%; Activity (HepG2 [16]): 3.45%; Activity (HepG2 [17]): 14.5%; Activity (HepG2 [18]): 12.4%; viability at 1 µM [19]: 73.6%; Activity [20]: 2.27%; Activity [21]: 18.5%; Activity [22]: 5.58%
CC1=C(O)C(=O)C=C2C1=CC=C1[C@@]2(C)CC[C@@]2(C)[C@@H]3C[C@](C)(C(=O)NC(CC(=O)NC(CC(=O)OC(C)(C)C)C(=O)OC(C)(C)C)C(=O)OC(C)(C)C)CC[C@]3(C)CC[C@]12C (stereo not given in full) | 2.18 | 9.85 | 19.1 | 7.98 | 4.54 | 4.21 | 1.07 | 2.39 | 0.61 | 
CC1=C(O)C(=O)C=C2C1=CC=C1[C@@]2(C)CC[C@@]2(C)[C@@H]3C[C@](C)(C(=O)NC(CCC(=O)N(CC(=O)OC(C)(C)C)C(=O)OC(C)(C)C)C(=O)OC(C)(C)C)CC[C@]3(C)CC[C@]12C (stereo not given in full) | 1.33 | 3.4 | 2.34 | 1.54 | 2.55 | 0.91 | 3.4 | 1.52 | 5.96 | 
CC1=C(O)C(=O)C=C2C1=CC=C1[C@@]2(C)CC[C@@]2(C)[C@@H]3C[C@](C)(C(=O)NC(CC(=O)OC(C)(C)C)C(=O)NC(CCC(=O)OC(C)(C)C)C(=O)OC(C)(C)C)CC[C@]3(C)CC[C@]12C (stereo not given in full) | 6.87 | 37.7 | 45.4 | 20.3 | 17 | 2.67 | 0.61 | 2.23 | 0.51 | 
CC1=C(O)C(=O)C=C2C1=CC=C1[C@@]2(C)CC[C@@]2(C)[C@@H]3C[C@](C)(C(=O)NCCCNC(=O)[C@@]4(C)CC[C@@]5(C)CC[C@@]6(C)C7=CC=C8C(=CC(=O)C(O)=C8C)[C@@]7(C)CC[C@]6(C)[C@H]5C4)CC[C@]3(C)CC[C@]12C | 0.41 | 2.45 | 1.65 | 1.17 |  |  |  |  |  | 
CC1=C(O)C(=O)C=C2C1=CC=C1[C@@]2(C)CC[C@@]2(C)[C@@H]3C[C@](C)(C(=O)NC(CCC(=O)OC(C)(C)C)C(=O)OC(C)(C)C)CC[C@]3(C)CC[C@]12C (stereo not given in full) | 0.62 | 4.2 | 4.23 | 2.52 | 1.54 |  |  |  |  | 
CC1=C(O)C(=O)C=C2C1=CC=C1[C@@]2(C)CC[C@@]2(C)[C@@H]3C[C@](C)(C(=O)O)CC[C@]3(C)CC[C@]12C [CELASTROL] | 0.454 | 2.83 | 0.78 | 0.94 | 1.85 | 0.42 | 0.48 | 0.82 | 0.96 | inhibition (HeLa [8]): Active; inhibition (HeLa [9]): Active; inhibition (HeLa [10]): Active; viability at 24 h, 1 µM [11]: 70.8%; Activity (L02 [12]): 12.9%; Activity (L02 [13]): 15.5%; Activity (L02 [14]): 0.823%; viability at 1 µM (HepG2 [15]): 79.6%; Activity (HepG2 [16]): 8.7%; Activity (HepG2 [17]): 10%; Activity (HepG2 [18]): 1.61%; viability at 1 µM [19]: 75.3%; Activity [20]: 4.73%; Activity [21]: 10.5%; Activity [22]: 9.47%
